Measured values from US20190194209A1, “PYRAZOLE CARBOXAMIDE COMPOUNDS AND METHODS OF USE” (Genentech, Inc., priority 2014, published 2019).
Like-named read-outs stand apart in the source and are kept apart here.

Columns and labels:
[1] = tested on: CD69 production by B lymphocytes in human whole blood activated with goat F(ab')2 anti-human IgM; test: CD69 Whole Blood Assay (Example 907); format: cell-based; settings: Lymphocyte, read-out: CD69 Hu Blood FACS (IC70)
Description: A CD69 Whole Blood Assay can be conducted on Formula I compounds to determine the ability of compounds to inhibit the production of CD69 by B lymphocytes in human whole blood activated by crosslinking surface IgM with goat F(ab′)2 anti-human IgM (Example 907). CD69 is a type II C-type lectin involved in lymphocyte migration and cytokine secretion. CD69 expression represents one of the earliest available indicators of leukocyte activation and its rapid induction occurs through transcriptional activation (Vazquez et al (2009) Jour. of Immunology Published Oct. 19, 2009, doi: 10.4049/jimmunol.0900839). Concentration-dependent inhibition of antigen receptor stimulation by selective Btk inhibitors induces cell surface expression of the lymphocyte activation marker CD69 (Honigberg et al (2010) Proc. Natl. Acad. Sci. 107(29):13075-13080). Thus, CD69 inhibition by selective Btk inhibitors may be correlated with therapeutic efficacy of certain B-cell disorders.
Human blood is obtained from healthy volunteers, with the following restrictions: 1 week drug-free, non-smokers. Blood (approximately 20 mls to test 8 compounds) is collected by venipuncture into Vacutainer® (Becton, Dickinson and Co.) tubes with sodium heparin.
Solutions of Formula I compounds at 10 mM in DMSO are diluted 1:10 in 100% DMSO, then are diluted by three-fold serial dilutions in 100% DMSO for a ten point dose-response curve. The compounds are further diluted 1:10 in PBS and then an aliquot of 5.5 μl of each compound is added in duplicate to a 2 ml 96-well plate; 5.5 μl of 10% DMSO in PBS is added as control and no-stimulus wells. Human whole blood—HWB (100 μl) is added to each well. After mixing the plates are incubated at 37° C., 5% CO2, 100% humidity for 30 minutes. Goat F(ab′)2 anti-human IgM (10 μl of a 500 μg/ml solution, 50 μg/ml final) is added to each well (except the no-stimulus wells) with mixing and the plates are incubated for an additional 20 hours. At the end of the 20 hour incubation, samples are incubated with fluorescent labeled antibodies for 30 minutes, at 37° C., 5% CO2, 100% humidity. Include induced control, unstained and single stains for compensation adjustments and initial voltage settings. Samples are then lysed with PharM Lyse™ (BD Biosciences Pharmingen) according to the manufacturer's instructions. Samples are then transferred to a 96 well plate suitable to be run on the BD Biosciences HTS 96 well system on the LSRII machine. Data acquired and Mean Fluorescence Intensity values were obtained using BD Biosciences DIVA Software. Results are initially analyzed by FACS analysis software (Flow Jo).

[2] = molecular target: T1, full length human wildtype Btk (Homo sapiens, UniProt Q06187); test: Biochemical Btk Kinase Assay (Example 901); settings: read-out: BTK LC3K (Ki)
T1 construct: V5 (C); 6xHis (C); made in house; host or cells: Sf9 cells (baculovirus, pFastBac)
T1 sequence (Q06187 whole entry): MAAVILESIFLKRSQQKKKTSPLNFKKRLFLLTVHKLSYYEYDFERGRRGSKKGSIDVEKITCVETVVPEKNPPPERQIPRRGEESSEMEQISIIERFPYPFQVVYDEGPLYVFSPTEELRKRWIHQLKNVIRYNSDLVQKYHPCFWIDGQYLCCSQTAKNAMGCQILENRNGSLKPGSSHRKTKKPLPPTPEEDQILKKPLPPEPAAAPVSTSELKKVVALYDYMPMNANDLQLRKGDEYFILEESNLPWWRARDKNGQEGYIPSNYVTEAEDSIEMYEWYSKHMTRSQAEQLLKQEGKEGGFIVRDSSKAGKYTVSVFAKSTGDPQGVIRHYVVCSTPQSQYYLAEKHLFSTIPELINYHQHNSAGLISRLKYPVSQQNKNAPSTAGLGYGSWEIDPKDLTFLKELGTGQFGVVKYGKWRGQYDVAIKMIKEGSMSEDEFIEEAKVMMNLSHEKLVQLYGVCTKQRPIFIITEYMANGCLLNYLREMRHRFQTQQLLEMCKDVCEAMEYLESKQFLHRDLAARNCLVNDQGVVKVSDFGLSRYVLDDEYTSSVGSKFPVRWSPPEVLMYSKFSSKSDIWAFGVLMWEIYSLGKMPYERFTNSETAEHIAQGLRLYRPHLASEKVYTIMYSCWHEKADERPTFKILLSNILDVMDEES
Procedure: Formula I compounds were tested by a standard biochemical Btk, Kinase Assay (Example 901). A generalized procedure for a standard biochemical Btk, Kinase Assay that can be used to test Formula I compounds is as follows. A master mix minus Btk enzyme is prepared containing 1× Cell Signaling kinase buffer (25 mM Tris-HCl, pH 7.5, 5 mM beta-glycerophosphate, 2 mM dithiothreitol, 0.1 mM Na3VO4, 10 mM MgCl2), 0.5 μM Promega PTK Biotinylated peptide substrate 2, and 0.01% BSA. A master mix plus Btk enzyme is prepared containing 1× Cell Signaling kinase buffer, 0.5 μM (micromolar) PTK Biotinylated peptide substrate 2, 0.01% BSA, and 100 ng/well (0.06 mU/well) Btk enzyme. Btk enzyme is prepared as follows: full length human wildtype Btk (accession number NM-000061) with a C-terminal V5 and 6×His tag was subcloned into pFastBac® vector (Invitrogen/Life Technologies) for making baculovirus carrying this epitope-tagged Btk. Generation of baculovirus is done based on Invitrogen's instructions detailed in its published protocol “Bac-to-Bac Baculovirus Expression Systems” (Invitrogen/Life Technologies, Cat. Nos. 10359-016 and 10608-016). Passage 3 virus is used to infect Sf9 cells to overexpress the recombinant Btk protein. The Btk protein is then purified to homogeneity using Ni-NTA column. The purity of the final protein preparation is greater than 95% based on the sensitive Sypro-Ruby staining. A solution of 200 μM ATP is prepared in water and adjusted to pH 7.4 with 1N NaOH. A quantity of 1.25 μL (microliter) of compounds in 5% DMSO is transferred to a 96-well 2 area Costar polystyrene plate. Compounds are tested singly and with an 11-point dose-responsive curve (starting concentration is 10 μM; 1:2 dilution). A quantity of 18.75 μL of master mix minus enzyme (as a negative control) and master mix plus enzyme is transferred to appropriate wells in 96-well 2 area costar polystyrene plate. 5 μL of 200 μM ATP is added to that mixture in the 96-well 2 area Costar polystyrene plate for final ATP concentration of 40 μM. The reaction is allowed to incubate for 1 hour at room temperature. The reaction is stopped with Perkin Elmer 1× detection buffer containing 30 mM EDTA, 20 nM SA-APC, and 1 nM PT66 Ab. The plate is read using time-resolved fluorescence with a Perkin Elmer Envision using excitation filter 330 nm, emission filter 665 nm, and 2nd emission filter 615 nm. IC50 values are subsequently calculated. Alternatively, the Lanthascreen assay can be used to evaluate Btk activity through quantification of its phosphorylated peptide product. The FRET (Fluorescence Resonance Energy Transfer) that occurs between the fluorescein on the peptide product and the terbium on the detection antibody decreases with the addition of inhibitors of Btk that reduce the phosphorylation of the peptide. In a final reaction volume of 25 μL (microliters), Btk (h) (0.1 ng/25 μl reaction) is incubated with 50 mM Hepes pH 7.5, 10 mM MgCl2, 2 mM MnCl2, 2 mM DTT, 0.2 mM NaVO4, 0.01% BSA, and 0.4 uM fluorescein poly-GAT. The reaction is initiated by the addition of ATP to 25 μM (micromolar) the Km of ATP. After incubation for 60 minutes at room temperature, the reaction is stopped by the addition of a final concentration of 2 nM Tb-PY20 detection antibody in 60 mM EDTA for 30 minutes at room temperature. Detection is determined on a Perkin Elmer Envision with 340 nm excitation and emission at 495 nm and 520 nm. Exemplary Btk inhibition […] values are in Table 1.

[3] = human whole blood, anti-IgM stimulated, 20 hour incubation, CD20 positive cells, FACS

| Structure (SMILES) | Ki [2] | IC70 ([1]; Homo sapiens, 20 h) | IC70 [1, 3] |
| --- | --- | --- | --- |
| CC1(C)Cc2cc3n(c2C1)CCN(c1nccc(-n2cc(C(N)=O)c(N)n2)c1CO)C3=O [Example 117, 3-amino-1-[2-(7,7-dimethyl-4-oxo-1,2,6,8-tetrahydrocyclopenta[3,4]pyrrolo[3,5-b]pyrazin-3-yl)-3-(hydroxymethyl)-4-pyridyl]pyrazole-4-carboxamide] | 2.45 nM | 494 nM |  |
| CCC(=O)Nc1nn(-c2ccnc(N3CCn4c(cc5c4CC(C)(C)C5)C3=O)c2CO)cc1C(N)=O [Example 123, 1-[2-(7,7-dimethyl-4-oxo-1,2,6,8-tetrahydrocyclopenta[3,4]pyrrolo[3,5-b]pyrazin-3-yl)-3-(hydroxymethyl)-4-pyridyl]-3-(propanoylamino)pyrazole-4-carboxamide] | 32.1 nM |  | 685 nM |
| C[C@H]1CN(C2COC2)CCN1c1ccc(Nc2cn(-c3ccnc(N4CCn5c(cc6c5CC(C)(C)C6)C4=O)c3CO)nc2C(N)=O)nc1 [Example 126, 1-[2-(7,7-dimethyl-4-oxo-1,2,6,8-tetrahydrocyclopenta[3,4]pyrrolo[3,5-b]pyrazin-3-yl)-3-(hydroxymethyl)-4-pyridyl]-4-[[5-[(2S)-2-methyl-4-(oxetan-3-yl)piperazin-1-yl]-2-pyridyl]amino]pyrazole-3-carboxamide] | 0.156 nM |  | 6.4 nM |
| C[C@H]1CN(C2COC2)CCN1c1ccc(Nc2nn(-c3cc(F)cc(N4CCn5c(cc6c5CC(C)(C)C6)C4=O)c3CO)cc2C(N)=O)nc1 [Example 145, 1-[3-(7,7-dimethyl-4-oxo-1,2,6,8-tetrahydrocyclopenta[3,4]pyrrolo[3,5-b]pyrazin-3-yl)-5-fluoro-2-(hydroxymethyl)phenyl]-3-[[5-[(2S)-2-methyl-4-(oxetan-3-yl)piperazin-1-yl]-2-pyridyl]amino]pyrazole-4-carboxamide] | 0.103 nM |  | 30.4 nM |

Now from value to compound, other results behind:

| Ki [2] | Structure (SMILES) | IC70 ([1]; Homo sapiens, 20 h) | IC70 [1, 3] |
| --- | --- | --- | --- |
| 0.248 nM | CC(C)(C)c1cc(F)c2c(=O)n(-c3nccc(-n4cc(C(N)=O)c(Nc5ccc(N6CCNCC6)cn5)n4)c3CO)ncc2c1 [Example 118, 1-[2-(6-tert-butyl-8-fluoro-1-oxo-phthalazin-2-yl)-3-(hydroxymethyl)-4-pyridyl]-3-[(5-piperazin-1-yl-2-pyridyl)amino]pyrazole-4-carboxamide] |  | 574 nM |
| 0.317 nM | Cn1cc(Nc2nn(-c3ccnc(N4CCn5c(cc6c5CC(C)(C)C6)C4=O)c3CO)cc2C(N)=O)nn1 [Example 119, 1-[2-(7,7-dimethyl-4-oxo-1,2,6,8-tetrahydrocyclopenta[3,4]pyrrolo[3,5-b]-pyrazin-3-yl)-3-(hydroxymethyl)-4-pyridyl]-3-[(1-methyltriazol-4-yl)amino]pyrazole-4-carboxamide] |  | 47.2 nM |
| 0.106 nM | C[C@H]1CN(C2COC2)CCN1c1ccc(Nc2nn(-c3ccnc(-n4ncc5cc(C(C)(C)C)cc(F)c5c4=O)c3CO)cc2C(N)=O)nc1 [Example 120, 1-[2-(6-tert-butyl-8-fluoro-1-oxo-phthalazin-2-yl)-3-(hydroxymethyl)-4-pyridyl]-3-[[5-[(2S)-2-methyl-4-(oxetan-3-yl)piperazin-1-yl]-2-pyridyl]amino]pyrazole-4-carboxamide] |  | 98.6 nM |
| 1.15 nM | CC(C)(C)c1cc(F)c2c(=O)n(-c3nccc(-n4cc(C(N)=O)c(-c5cnn(C(F)F)c5)n4)c3CO)ncc2c1 [Example 121, 1-[2-(6-tert-butyl-8-fluoro-1-oxo-phthalazin-2-yl)-3-(hydroxymethyl)-4-pyridyl]-3-[1-(difluoromethyl)pyrazol-4-yl]pyrazole-4-carboxamide] |  | 1400 nM |
| 8.6 nM | Cc1nn(C)cc1-c1nn(-c2ccnc(-n3ncc4cc(C(C)(C)C)cc(F)c4c3=O)c2CO)cc1C(N)=O [Example 122, 1-[2-(6-tert-butyl-8-fluoro-1-oxo-phthalazin-2-yl)-3-(hydroxymethyl)-4-pyridyl]-3-(1,3-dimethylpyrazol-4-yl)pyrazole-4-carboxamide] |  | 3300 nM |
| 1.3 nM | Cn1cc(-c2nn(-c3cc(F)cc(-n4ncc5cc(C(C)(C)C)cc(F)c5c4=O)c3CO)cc2C(N)=O)cn1 [Example 127, 1-[3-(6-tert-butyl-8-fluoro-1-oxo-phthalazin-2-yl)-5-fluoro-2-(hydroxymethyl)phenyl]-3-(1-methylpyrazol-4-yl)pyrazole-4-carboxamide] |  | 5000 nM |
